From patent US6875761B2 (Eisai Co., Ltd., priority 1997, dated 2005)
Structures can show the parent of a compound that is named as a salt.

Compound	melting point
CCN1CCN(c2nc(-c3ccc(C4CCOCC4)nc3)cc3ccccc23)CC1 (as salt: oxalate) [Example 156, 3-[2-(tetrahydropyran-4-yl)pyridin-5-yl]-1-(4-ethylpiperazin-1-yl)isoquinoline oxalate]	158 to 160 °C
CCN1CCN(c2nc(C#Cc3ccccn3)cc3ccccc23)CC1 (as salt: oxalate) [Example 179, 1-(1-Ethylpiperazin-4-Yl)-3-(2-Pyridyl)Ethynylisoquinoline Oxalate]	148 to 154 °C
CCN1CCN(c2nc(C#CCN3CCOCC3)cc3ccccc23)CC1 (as salt: oxalate) [Example 180, 3-[3-(4-Morpholinyl)-1-Propynyl]-1-(4-Ethylpiperazin-1-Yl)Isoquinoline Oxalate]	231 to 233 °C
CCN1CCN(c2nc(C#CCc3ccccc3)cc3ccccc23)CC1 (as salt: oxalate) [Example 181, 1-(1-Ethylpiperazin-4-Yl)-3-(3-Phenyl-1-Propynyl)Isoquinoline Oxalate]	180 to 183 °C
CCN1CCN(c2nc(C#CC(=O)c3ccccc3)cc3ccccc23)CC1 (as salt: oxalate) [Example 184, 1-(1-Ethylpiperazin-4-Yl)-3-Benzoylethynylisoquinoline Oxalate]	161 to 163 °C
CCN1CCN(c2nc(/C=C/c3ccc(CS(C)(=O)=O)cc3)cc3ccccc23)CC1 (as salt: oxalate) [Example 203, 3-[(E)-2-(4-Methylsulfonylmethylphenyl)Ethenyl]-1-(4-Ethylpiperazin-1-Yl)Isoquinoline Oxalate]	245 to 247 °C
CCN1CCN(c2nc(/C=C/c3cccc(N4CCOCC4)c3)cc3ccccc23)CC1 (as salt: oxalate) [Example 204, 3-{(E)-2-[3-(4-Morpholinyl)Phenyl]Ethenyl}-1-(4-Ethylpiperazin-1-Yl)Isoquinoline Oxalate]	180 to 182 °C
CCN1CCN(c2nc(/C=C/c3ccc(N4CCOCC4)cc3)cc3ccccc23)CC1 (as salt: oxalate) [Example 205, 3-{(E)-2-[4-(4-Morpholinyl)Phenyl]Ethenyl}-1-(4-Ethylpiperazin-1-Yl)Isoquinoline Oxalate]	248 to 250 °C
CCN1CCN(c2nc(/C=C(\C)c3ccc(N4CCOCC4)cc3)cc3ccccc23)CC1 (as salt: oxalate) [Example 206, 3-{(E)-2-Methyl-2-[4-(4-Morpholinyl)Phenyl]Ethenyl}-1-(4-Ethylpiperazin-1-Yl)Isoquinoline Oxalate]	266 to 267 °C
CCN1CCN(c2nc(/C=C(\C)c3cccc(N4CCOCC4)c3)cc3ccccc23)CC1 (as salt: oxalate) [Example 207, 3-{(E)-2-Methyl-2-[3-(4-Morpholinyl)Phenyl]Ethenyl}-1-(4-Ethylpiperazin-1-Yl)Isoquinoline Oxalate]	190 to 192 °C
CCN1CCN(c2nc(/C=C/c3ccc(N4CCOCC4)nn3)cc3ccccc23)CC1 (as salt: oxalate) [Example 214, 3-{(E)-2-[3-(4-Morpholinyl)Pyridazin-6-Yl]Ethenyl}-1-(4-Ethylpiperazin-1-Yl)Isoquinoline Oxalate]	88 to 90 °C
CCN1CCN(c2nc(/C=C/c3cc(N4CCOCC4)ncn3)cc3ccccc23)CC1 (as salt: oxalate) [Example 215, 3{(E)-2-[4-(4-morpholinyl)pyrimidin-6-yl]ethenyl}-1-(4-ethylpiperazin-1-yl)isoquinoline oxalate]	130 to 134 °C
CCN1CCN(c2nc(/C=C/c3cncc(N4CCOCC4)n3)cc3ccccc23)CC1 (as salt: oxalate) [Example 216, 3-{(E)-2-[2-(4-morpholinyl)pyrazin-6-yl]ethenyl}-1-(4-ethylpiperazin-1-yl)isoquinoline oxalate]	173 to 175 °C
CCN1CCN(c2nc(-c3ccc(CCCO)c(Cl)c3)cc3ccsc23)CC1 (as salt: oxalate) [Example 257, 5-[4-(3-hydroxypropyl)-3-chlorophenyl]-7-(4-ethylpiperazin-1-yl)thieno[2,3-c]pyridine Oxalate]	114 to 116 °C
CCN1CCN(c2nc(-c3ccc(OC)c(CCCO)c3)cc3ccsc23)CC1 (as salt: oxalate) [Example 261, 5-[3-(3-hydroxypropyl)-4-methoxyphenyl]-7-(4-ethylpiperazin-1-yl)thieno[2,3-c]pyridine Oxalate]	98 to 102 °C
CCN1CCN(c2nc(-c3ccc(CCCO)c(C#N)c3)cc3ccsc23)CC1 (as salt: oxalate) [Example 262, 5-[4-(3-hydroxypropyl)-3-cyanophenyl]-7-(4-ethylpiperazin-1-yl)thieno[2,3-c]pyridine Oxalate]	132 to 134 °C
CCN1CCN(c2nc(-c3ccc(OCCO)nc3)cc3ccsc23)CC1 (as salt: oxalate) [Example 268, 5-[2-(2-hydroxyethoxy)pyridin-5-yl]-7-(4-ethylpiperazin-1-yl)thieno[2,3-c]pyridine Oxalate]	124 to 125 °C
OCCOc1ccc(-c2cc3ccsc3c(N3CCN(CCO)CC3)n2)cc1 (as salt: oxalate) [Example 275, 5-[4-(2-hydroxyethoxy)phenyl]-7-[4-(2-hydroxyethyl)piperazin-1-yl]thieno[3,2-c]pyridine oxalate]	105 to 107 °C
CCN1CCN(c2nc(-c3ccc(OCCO)cc3)cc3cscc23)CC1 (as salt: oxalate) [Example 278, 4-(4-ethylpiperazin-1-yl)-6-[4-(2-hydroxyethoxy)phenyl]thieno-[3,4-c]pyridine oxalate]	130 °C (dec.)

Compound	melting point
CCN1CCN(c2nc(-c3ccc(C(C)O)cc3)cc3sccc23)CC1 (stereo not shown) (as salt: oxalate) [Example 281, 4-(4-ethylpiperazin-1-yl)-6-[4-(1-hydroxyethyl)phenyl]thieno[3,2-c]pyridine oxalate]	134 to 135 °C
CCC(O)c1ccc(-c2cc3sccc3c(N3CCN(CC)CC3)n2)cc1 (stereo not shown) (as salt: oxalate) [Example 282, 4-(4-ethylpiperazin-1-yl)-6-[4-(1-hydroxypropyl)phenyl]thieno-[3,2-c]pyridine oxalate]	130 to 131 °C
CCN1CCN(c2nc(-c3ccc(OCCO)cc3)cc3ccoc23)CC1 (as salt: oxalate) [Example 301, 7-(1-Ethylpiperazin-4-yl)-5-[4-(2-hydroxyethoxy)phenyl]furo[2,3-c]pyridine oxalate]	145 to 152 °C
CCN1CCN(Cc2nc(-c3ccc(OC)cc3)cc3ccccc23)CC1 (as salt: oxalate) [Example 328, 3-(4-methoxyphenyl)-1-(4-ethylpiperazin-1-yl)methylisoquinoline oxalate]	219 to 221 °C
CCN1CCN(c2nc(Sc3ccccc3)cc3ccccc23)CC1 (as salt: oxalate) [Example 374, 1-(4-ethylpiperazin-1-yl)-3-(phenylthio)isoquinoline oxalate]	181.5 to 183 °C
CCN1CCN(c2nc(-c3ccc(CC(C)O)cc3)cc3ccccc23)CC1 (stereo not shown) (as salt: oxalate) [Example 376, 1-(4-ethylpiperazin-1-yl)-3-[4-(2-hydroxypropyl)phenyl]isoquinoline oxalate]	174 to 176 °C
CCN1CCN(c2nc(-c3ccc(CC(C)(C)O)cc3)cc3ccccc23)CC1 (as salt: oxalate) [Example 377, 1-(4-Ethylpiperazin-1-yl)-3-[4-(2-Hydroxy-2-Methylpropyl)Phenyl]Isoquinoline Oxalate]	184 to 186 °C (dec.)
CCN1CCN(c2nc(Sc3ccccn3)cc3ccccc23)CC1 (as salt: oxalate) [Example 378, 1-(4-Ethylpiperazin-1-yl)-3-(2-Pyridylthio)Isoquinoline Oxalate]	178 to 181 °C (dec.)
CCC/C(=N\O)c1ccc(-c2cc3ccccc3c(N3CCN(CC)CC3)n2)cc1 (as salt: oxalate) [Example 380, 1-(4-Ethylpiperazin-1-yl)-3-[4-(1-Hydroxyiminobutyl)Phenyl]Isoquinoline]	179.5 to 180 °C
CCCN(C)C(=O)c1ccc(-c2cc3ccccc3c(N3CCN(CC)CC3)n2)cc1 (as salt: oxalate) [Example 381]	131 to 132 °C
CCN1CCN(c2nc(-c3ccc(C(=O)N(C)CCO)cc3)cc3ccccc23)CC1 (as salt: oxalate) [Example 382, 1-(4-Ethylpiperazin-1-yl)-3-{4-[N-(2-Hydroxyethyl)-N-Methylcarbamoyl]Phenyl}Isoquinoline]	116 to 118 °C
CCN1CCN(c2nc(-c3ccc(C(C)CCO)cc3)cc3ccccc23)CC1 (stereo not shown) (as salt: oxalate) [Example 383, 1-(4-Ethylpiperazin-1-yl)-3-[4-(3-Hydroxy-1-Methylpropyl)Phenyl]Isoquinoline Oxalate]	106 to 108 °C
CCN1CCN(c2nc(-c3ccc(CC(C)CO)cc3)cc3ccccc23)CC1 (stereo not shown) (as salt: oxalate) [Example 386, 1-(4-Ethylpiperazin-1-yl)-3-[4-(3-Hydroxy-2-Methylpropyl)Phenyl]Isoquinoline Oxalate]	195 to 196 °C
CCN1CCN(c2nc(-c3ccc(CC(C)(C)CO)cc3)cc3ccccc23)CC1 (as salt: oxalate) [Example 389, 1-(4-Ethylpiperazin-1-yl)-3-[4-(3-Hydroxy-2,2-Dimethylpropyl)Phenyl]Isoquinoline Oxalate]	194 to 195 °C
CCN1CCN(c2nc(-c3ccc(C(C)(C)CCO)cc3)cc3ccccc23)CC1 (as salt: oxalate) [Example 390]	134 to 135 °C
CCN1CCN(c2nc(C(O)c3cccnc3)cc3ccccc23)CC1 (stereo not shown) (as salt: oxalate) [Example 413, 1-(4-ethylpiperazin-1-yl)-3-[(3-pyridyl)hydroxymethyl]isoquinoline]	174 to 175 °C
CCN1CCN(c2nc(-c3ccc4c(c3)CCC4O)cc3ccccc23)CC1 (stereo not shown) (as salt: oxalate) [Example 415, 1-(4-ethylpiperazin-1-yl)-3-(1-hydroxyindan-5-yl)isoquinoline]	193 to 195 °C
CCN1CCN(c2nc(-c3ccc(C#CC(C)(C)O)cc3)cc3sccc23)CC1 (as salt: oxalate) [Example 466, 4-(4-ethylpiperazin-1-yl)-6-[4-(3-hydroxy-3-methyl-1-butynyl)phenyl]thieno[3,2-c]pyridine oxalate]	124.5 to 125.5 °C
